Measurements taken from patent US20100075978A1, “SULFONAMIDE DERIVATIVES AS BRADYKININ ANTAGONISTS” (priority 2006, published 2010).
Structures can show the parent of a compound that is named as a salt.

How the values were obtained:
[1] = biological target: T1, recombinant human B1 receptors (Homo sapiens, UniProt P46663); experiment: Functional assay: cytosolic calcium ion concentration measured with plate reader fluorimeter in CHO-B1 cells, agonist LysDABK; type: cell-based; conditions: CHO-B1 cells, LysDABK at EC80, [Ca2+]i; read-out: B1 func.
T1 construct: host or cells: CHO (CHO-B1)
T1 sequence (P46663 1-353): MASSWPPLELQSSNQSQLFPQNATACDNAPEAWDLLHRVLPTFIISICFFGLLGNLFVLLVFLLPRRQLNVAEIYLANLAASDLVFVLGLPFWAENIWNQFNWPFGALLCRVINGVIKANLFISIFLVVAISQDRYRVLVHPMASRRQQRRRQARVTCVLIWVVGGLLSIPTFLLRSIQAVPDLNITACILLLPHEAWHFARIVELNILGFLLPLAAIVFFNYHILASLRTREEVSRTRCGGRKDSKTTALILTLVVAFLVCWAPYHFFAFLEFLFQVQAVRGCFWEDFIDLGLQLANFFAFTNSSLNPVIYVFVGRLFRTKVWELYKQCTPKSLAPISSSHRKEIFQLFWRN
Method: Assessment of Antagonist Potency at B1 and B2 Receptors In Vitro by Measurement of Cytosolic Calcium Ion Concentration with a Plate Reader Fluorimeter in Cells Expressing Recombinant Human B1 or B2 Receptors
Chinese hamster ovary (CHO) cells stably expressing recombinant human B1 (CHO-B1, Euroscreen) or B2 (CHO-B2, Perkin-Elmer) receptors were cultured in Dulbecco's Modified Eagle's Medium (DMEM) containing 10% Fetal Calf Serum (FCS), 100 U/ml penicillin, 0.1 mg/ml streptomycin, 0.25 μg/ml amphotericin B, 1% Minimum Essential Medium Eagle (MEM), non essential amino acid solution, 600 μg/ml G418, 1% pyruvate (for the B2 cell line). Cells were kept at 37° C. in a humidified incubator in an atmosphere of 5% CO2/95% air and were passaged 1:4 three times a week. Cells were plated at 1.5-2.5×10^4 cell/well on standard 96-well microplates, measurements of cytosolic calcium ion concentration ([Ca^2+]i) were carried out 1-2 days after cell plating.
Measurements of [Ca^2+]i were carried out on CHO-B1 and CHO-B2 cells stably expressing human B1 and B2 receptors, respectively. Cells were grown in standard 96-well microplates and before the measurement were loaded with a fluorescent Ca^2+-sensitive dye, fluo-4/AM (2 μM): after removing the culture medium the dye was added to the cells (dissolved in assay buffer: 145 mM NaCl, 5 mM KCl, 2 mM MgCl2, 2 mM CaCl2, 10 mM HEPES, 20 mM D-glucose, 2 mM probenecid, 100 μl/well) and cells were incubated at 37° C. in a humidified incubator in an atmosphere of 5% CO2/95% air for 40-120 min. To stop dye loading cells were washed twice with assay buffer. After washing, various concentrations of the test compounds (diluted in extracellular medium from a DMSO stock solution, final DMSO concentration was <0.1%) or buffer were added to each well depending on the experimental setup. After incubation at 37° C. for 20-25 min. baseline and agonist-evoked changes of [Ca^2+]i were measured column by column with a plate reader fluorimeter (Fluoroskan Ascent, Labsystems). Excitation and detection of emission was carried out from the bottom of the plate. Filters used for Fluo-4: excitation filter—485 nm, emission filter—538 nm. The whole measurement process was performed at 37° C. and was controlled by custom software. Inhibitory potency of the test compounds was assessed by measuring the reduction in the agonist-evoked [Ca^2]i-elevation in the presence of different concentrations of the compounds. The agonists were LysDABK for CHO-B1, and bradykinin for CHO-B2 cells. Agonists were applied at an EC80 concentration, the EC80-values were derived from daily determined dose-response curves. Fluorescence data were expressed as ΔF/F (fluorescence change normalized to baseline). All treatments on a single plate were measured in multiple wells. Data from all wells with the same treatment were averaged and the average values were used for analysis. Inhibitory potency of a compound at a single concentration point was expressed as percent inhibition of the control agonist response. Sigmoidal concentration-inhibition curves were fitted to the data (derived from at least three independent experiments) and IC50-values were determined as the concentration that produces half of the maximal inhibition caused by the compound.

[2] = biological target: T2, human recombinant bradykinin B1 receptor (Homo sapiens, UniProt P46663); experiment: Human recombinant bradykinin B1 receptor binding; conditions: radioligand [3H]-[Des-Arg10] Kallidin, CHO cell membranes; read-out: B1 binding
T2 construct: purchased Euroscreen ES-091; host or cells: CHO cells
T2 sequence (P46663 1-353): T1 sequence (P46663 1-353)
Method: 1. Human Recombinant Bradykinin B1 Receptor Binding
Binding assays were carried out on human recombinant bradykinin) receptors (expressed in CHO cells) according to the Euroscreen Technical Data Sheet (Cat.No.:ES-091). 20 μg protein/tube was incubated with [3,4-prolyl-3,4-^3H(N)]-[Des-Arg^10] Kallidin as radioligand. Non specific binding was determined in the presence of 10 μM Lys-des-Arg^9-Bradykinin. The final incubation volume was 250 μl. Samples were incubated for 15 min. at 25° C. then were rapidly vacuum filtered through GF/B filters presoaked for at least 1 h in 0.5% PEI. Radioactivity was determined by liquid scintillation spectroscopy.

| IC50 [1] [nM] | Ki [2] [nM] | Compound |
| --- | --- | --- |
| 20 to 100 | 20 to 100 | O=C(NCCCN1CCCCC1)c1ccc(S(=O)(=O)Nc2ccccc2Oc2ccc(Cl)cc2Cl)cc1 [Example 76, 4-[2-(2,4-Dichloro-phenoxy)-phenylsulfamoyl]-N-(3-piperidin-1-yl-propyl)-benzamide] |
| < 20 | < 20 | O=C(NCCN1CCN(c2ccncc2)CC1)c1ccc(S(=O)(=O)Nc2ccccc2Oc2ccc(Cl)cc2Cl)cc1 [Example 1, 4-[2-(2,4-Dichloro-phenoxy)-phenylsulfamoyl]-N-{2-[4-pyridin-4-yl-piperazin-1-yl)-ethyl]-benzamide dihydrochloride] |
| 20 to 100 | 20 to 100 | Cc1ccnc(N2CCN(CCNC(=O)c3ccc(S(=O)(=O)Nc4ccccc4Oc4ccc(Cl)cc4Cl)cc3)CC2)c1 [Example 54, 4-[2-(2,4-Dichloro-phenoxy)-phenylsulfamoyl]-N-{2-[4-(4-methyl-pyridin-2-yl)-piperazin-1-yl]-ethyl}-benzamide] |
| 20 to 100 | < 20 | O=C(CCNC(=O)c1ccc(S(=O)(=O)Nc2ccccc2Oc2ccc(Cl)cc2Cl)cc1)NCCC1CCNCC1 [Example 56, 4-[2-(2,4-Dichloro-phenoxy)-phenylsulfamoyl]-N-[2-(2-piperidin-4-yl-ethylcarbamoyl)-ethyl]-benzamide hydrochloride] |
| < 20 | < 20 | O=C(NCCCN1CCC(N2CCCCC2)CC1)c1ccc(S(=O)(=O)Nc2ccccc2Oc2ccc(Br)cc2)cc1 [Example 111, N-(3-[1,4′]Bipiperidinyl-1′-yl-propyl)-4-[2-(4-bromo-phenoxy)-phenylsulfamoyl]-benzamide] |
| 20 to 100 | 20 to 100 | O=C(NCCCN1CCC(N2CCCCC2)CC1)c1ccc(S(=O)(=O)Nc2ccccc2Oc2ccc(C(F)(F)F)cc2)cc1 [Example 129, N-(3-[1,4′]Bipiperidinyl-1′-yl-propyl)-4-[2-(4-trifluoromethyl-phenoxy)-phenylsulfamoyl]-benzamide] |
| 20 to 100 | 20 to 100 | O=C(NCCN1CCN(c2cnccn2)CC1)c1ccc(S(=O)(=O)Nc2ccccc2Oc2ccc(Br)cc2Cl)cc1 [Example 159, 4-[2-(4-Bromo-2-chloro-phenoxy)-phenylsulfamoyl]-N-[2-(2,3,5,6-tetrahydro-[1,2′]bipyrazinyl-4-14)-ethyl]-benzamide] |
| < 20 | < 20 | O=C(NCCc1ccc(C2=NCCN2)cc1)c1ccc(S(=O)(=O)Nc2ccccc2Oc2ccc(Cl)cc2)cc1 [Example 6, 4-[2-(4-Chloro-phenoxy)-phenylsulfamoyl]-N-{2-[4-(4,5-dihydro-1H-imidazol-2-yl)-phenyl]-ethyl}-benzamide] |
| 100 to 500 | 20 to 100 | N=C(N)NCc1ccc(CNC(=O)c2ccc(S(=O)(=O)Nc3ccccc3Oc3ccc(Br)cc3)cc2)cc1 [Example 23, 4-[2-(4-Bromo-phenoxy)-phenylsulfamoyl]-N-(4-guanidinomethyl-benzyl)-benzamide hydrochloride] |
| 20 to 100 | 20 to 100 | O=C(NCCCN1CCC(N2CCCCC2)CC1)c1ccc(S(=O)(=O)Nc2ccccc2Oc2ccccc2)cc1 [Example 152, N-(3-[1,4′]Bipiperidhlyl-1′-yl-propyl)-4-(2-phenoxy-phenylsulfamoyl)-benzamide] |
| < 20 | < 20 | O=C(NCCc1ccc(C2=NCCN2)cc1)c1ccc(S(=O)(=O)Nc2ccccc2Oc2ccc(Cl)c(Cl)c2)cc1 [Example 4, 4-[2-(3,4-Dichloro-phenoxy)-phenylsulfamoyl]-N-{2-[4-(4,5-dihydro-1H-imidazol-2-yl)-phenyl]-ethyl}-benzamide] |
| 20 to 100 | 20 to 100 | O=C(NCCN1CCN(c2ccccn2)CC1)c1ccc(S(=O)(=O)Nc2ccccc2Oc2ccc(Cl)cc2Cl)cc1 [Example 20, 4-[2-(2,4-Dichloro-phenoxy)-phenylsulfamoyl]-N-[2-(4-pyridin-2-yl-piperazin-1-yl)-ethyl]-benzamide trifluoroacetate] |
| 20 to 100 | 20 to 100 | O=C(CCNC(=O)c1ccc(S(=O)(=O)Nc2ccccc2Oc2ccc(Cl)cc2Cl)cc1)NC1CCNCC1 [Example 33, 4-[2-(2,4-Dichloro-phenoxy)-phenylsulfamoyl]-N-[2-(piperidin-4-ylcarbamoyl)-ethyl]-benzamide acetate] |
| < 20 | 20 to 100 | O=C(Nc1ccc(N2CCC(N3CCCCC3)CC2)cc1)c1ccc(S(=O)(=O)Nc2ccccc2Oc2ccc(C(F)(F)F)cc2)cc1 [Example 127, N-(4-[1,4′]Bipiperidinyl-1′-yl-phenyl)-4-[2-(4-trifluoromethyl-phenoxy)-phenylsulfamoyl]-benzamide] |
| 20 to 100 | 20 to 100 | O=C(NCCCCC1CCNCC1)c1ccc(S(=O)(=O)Nc2ccccc2Oc2ccc(F)cc2Cl)cc1 [Example 135, 4-[2-(2-Chloro-4-fluoro-phenoxy)-phenylsulfamoyl]-N-(4-piperidin-4-yl-butyl)-benzamide hydrochloride] |
| < 20 | < 20 | O=C(NCCc1ccc(C2=NCCN2)cc1)c1ccc(S(=O)(=O)Nc2ccccc2Oc2ccc(Br)cc2Cl)cc1 [Example 22, 4-[2-(4-Bromo-2-chloro-phenoxy)-phenylsulfamoyl]-N-{2-[4-(4,5-dihydro-1H-imidazol-2-yl)-phenyl]-ethyl}-benzamide] |
| < 20 | < 20 | O=C(NCCCN1CCC(N2CCCCC2)CC1)c1ccc(S(=O)(=O)Nc2ccccc2Oc2ccc(Br)cc2Cl)cc1 [Example 157, N-(3-[1,4′]Bipiperidinyl-1′-yl-propyl)-4-[2-(4-bromo-2-chloro-phenoxy)-phenylsulfamoyl]-benzamide] |
| 20 to 100 | 20 to 100 | O=C(NCc1ccc(CC2CCNCC2)cc1)c1ccc(S(=O)(=O)Nc2ccccc2Oc2ccc(Br)cc2Cl)cc1 [Example 166, 4-[2-(4-Bromo-2-chloro-phenoxy)-phenylsulfamoyl]-N-(4-piperidin-4-ylmethyl-benzyl)-benzamide hydrochloride] |
| 20 to 100 | 20 to 100 | O=C(NCCCC1CCNCC1)c1ccc(S(=O)(=O)Nc2ccccc2Oc2ccc(Cl)cc2Cl)cc1 [Example 137, 4-[2-(2,4-Dichloro-phenoxy)-phenylsulfamoyl]-N-(3-piperidin-4-yl-propyl)-benzamide trifluoracetate] |
| 20 to 100 | 20 to 100 | O=C(NCCC1CCNCC1)c1ccc(S(=O)(=O)Nc2ccccc2Oc2ccc(Cl)cc2Cl)cc1 [Example 11, 4-[2-(2,4-Dichloro-phenoxy)-phenylsulfamoyl]-N-(2-piperidin-4-ylethyl)-benzamide trifluoroacetate] |

| Compound | IC50 [1] [nM] | Ki [2] [nM] |
| --- | --- | --- |
| 4-[1-(3,4-Dichloro-phenoxy)-phenylsulfamoyl]-N-[3-(4-pyridin-4-yl-piperazin-1-yl)-propyl]-benzamide [Example 66] | < 20 | < 20 |
